From patent US5849326A, “Method for treating neuronal diseases via administration of 2-acylaminopropanol derivatives” (Seikagaku Corporation, priority 1993, dated 1998)
Changes are numbered by the printed parent chain.

Experiments:
ICR mice = experiment: General toxicity, continuous 10-day intraperitoneal administration; assay type: in vivo; details: 100 mg/kg/day intraperitoneally for 10 days
[1] = system: serine palmitoyltransferase; experiment: Enzyme activity in treated cerebral cortex culture: serine palmitoyltransferase; assay type: cell-based, rat; details: culture treated with 15 μM for 40 hours
Method: (§1) After the mixture was cultured for 40 hours, the resulting culture was harvested and pulverized in a homogenized buffer (50 mM Hepes, 0.32M sucrose) by using a chip type sonicator to prepare an enzyme source.
1.5 mM palmitoyl CoA (coenzyme A) and 0.1 mM ^14 C serine (8.3×10^5 cpm) were reacted in the presence of 0.5 mM pyridoxalphosphoric acid. After 3-keto-sphingosine which was a reaction product was extracted, the extract was concentrated and evaporated to dryness, and its radioactivity was counted.

[2] = system: rat cerebral cortex neurocytes; experiment: Synapse formation measured as frequency of intracellular Ca2+ fluctuation; assay type: cell-based; details: FIG. 4
From the text: Further, as a method of measuring synapse formation relatively simply and easily, there has been developed a multipoint observation system of Ca^2+ in neurocytes using Fura-2, and it has been confirmed that the number of synapse formation is in direct proportion to frequency of intracellular Ca^2+ fluctuation in synchronization therewith (Br. J. Pharmacol., 89, 191-198, 1986; Neurosci. Lett., 78, 69-74, 1987). We investigated influences of L-threo-FDMP and D-threo-PDMP exerted on synapse formation between rat cerebral cortex neurocytes by using this method, and the results are shown below.

GSL = details: J. Lipid. Res., vol. 28, pp. 565-571, 1987; cited from earlier work
[3] = system: LacCer (lactosylceramide) synthase; experiment: Enzyme activity in treated cerebral cortex culture: LacCer synthase; assay type: cell-based, rat; details: culture treated with 15 μM for 40 hours
Method: as §1
GlcCer as an acceptor substrate was reacted with 0.315mM UDP (uridine diphosphate)-^3 H galactose (2.7×10^8 cpm) as a donor substrate. After the mixture containing ^3 H-LacCer which was a reaction product was developed by a silica gel thin layer plate, a portion corresponding to the reaction product was scratched off, and its radioactivity was counted.

explants = experiment: Neurite-extending activity in explants (Example 6); assay type: cell-based; details: 5 μM to 15 μM, cultured for 40 hours, FIG. 5
Method: 1.6×10^5 cells/well of explants were sowed in a plate with 24 wells containing a DMEM medium. […] After the mixture was cultured for 40 hours, the resulting culture was fixed and then dyed with Coomassie, and nervous fibers extended to have a length which was longer than a diameter of […] were counted.

[4] = molecular target: T1, glucosylceramide biosynthesizing enzyme (Mus musculus, UniProt O88693); details: J. Lipid. Res., vol. 28, pp. 565-571, 1987; cited from earlier work
T1 sequence (O88693 1-394): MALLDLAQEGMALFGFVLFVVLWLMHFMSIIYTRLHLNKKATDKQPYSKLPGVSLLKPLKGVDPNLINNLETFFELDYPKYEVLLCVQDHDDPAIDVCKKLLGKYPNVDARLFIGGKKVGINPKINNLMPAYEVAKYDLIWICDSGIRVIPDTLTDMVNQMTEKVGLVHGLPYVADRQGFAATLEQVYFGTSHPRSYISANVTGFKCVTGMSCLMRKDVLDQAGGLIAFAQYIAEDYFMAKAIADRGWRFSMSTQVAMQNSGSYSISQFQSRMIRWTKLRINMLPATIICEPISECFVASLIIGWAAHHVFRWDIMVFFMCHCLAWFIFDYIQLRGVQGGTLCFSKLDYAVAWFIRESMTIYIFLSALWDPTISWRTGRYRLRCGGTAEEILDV

[5] = system: primary cultured rat cerebral neurocytes; experiment: Ganglioside content (ganglioside-binding sialic acid) of primary cultured neurocytes; assay type: cell-based
Method: Rat fetuses at the 18th day of pregnancy were taken out, and forebrain base portions of the fetuses were extracted aseptically and cut into small pieces by scissors. After the pieces were treated with papain (in a phosphate buffer containing 0.02% L-cysteine containing 180 U papain, 0.02% bovine serum albumin and 0.5% glucose, pH 7.4, at 37° C. for 30 minutes), they were washed with a mixed solution (DF medium) of 1:1 of a Dulbecco modified Eagle's medium and a Ham's F12 medium and suspended in a DF medium containing 5% bovine fetal serum and 5% equine serum. This neurocyte suspension was charged into a culture plate with 24 wells (Falcon, Primaria) in an amount of 1×10^6 cells/well. […] After completion of the culture, the cells in the respective wells were washed with a phosphate buffer and recovered by rubber policeman. Further, a ganglioside fraction was extracted by adding chloroform/methanol/water (1:2:0.8) and shaking the mixture for 5 minutes. […] The no addition group (control) which was defined as 100% was compared with the test groups, and the results are shown in Table 1.

[6] = molecular target: T2, GlcCer (glucosylceramide) synthase (Rattus norvegicus, UniProt Q9R0E0); experiment: Enzyme activity in treated cerebral cortex culture: GlcCer synthase; assay type: cell-based; details: culture treated with 15 μM for 40 hours
T2 construct: primary culture of cerebral cortex tissue specimens of Wister albino rats; endogenous in cells; host or cells: primary culture of rat (Wistar) cerebral cortex, sonicated after 40 h with compound
T2 sequence (Q9R0E0 1-394): T1 sequence (O88693 1-394) with D96E, K164R, R249K, T377A
Method: as §1
After ^3 H-GlcCer which was a reaction product was extracted with t-butyl methyl ether, the extract was concentrated and evaporated to dryness, and its radioactivity was measured.

[7] = system: acyl-CoA: sphingosine N-acyltransferase; experiment: Enzyme activity in treated cerebral cortex culture: acyl-CoA: sphingosine N-acyltransferase; assay type: cell-based, rat; details: culture treated with 15 μM for 40 hours
Method: as §1
0.25 mM sphingosine and 0.45 mM ^14 C palmitoyl CoA (8.3×10^5cpm) were reacted in the presence of ATP (adenosine 5'-triphosphate). After ceramide which was a reaction product was subjected to solvent extraction, the extract was concentrated and evaporated to dryness, and its radioactivity was counted.

GM3 synthase = experiment: Enzyme activity in treated cerebral cortex culture: GM3 synthase; assay type: cell-based, rat; details: culture treated with 15 μM for 40 hours
Method: as §1
After the mixture containing a reaction product was developed by a reverse phase thin layer plate, a portion corresponding to the reaction product was scratched off, and its radioactivity was counted.

neurites = details: J. Biochem., vol. 110, pp. 96-103, 1991; cited from earlier work
GD3 synthase = experiment: Enzyme activity in treated cerebral cortex culture: GD3 synthase; assay type: cell-based, rat; details: culture treated with 15 μM for 40 hours
Method: as §1
GM3 as an acceptor substrate was reacted with 30 mM CMP-^14 C sialic acid (2.88×10^6 cpm) as a donor substrate. After the mixture containing a reaction product was developed by a reverse phase thin layer plate, a portion corresponding to the reaction product was scratched off, and its radioactivity was counted.

[8] = system: rats with spacial recognition disorder caused by repeated cerebral ischemia; experiment: Maze radiated in 8 directions after repeated cerebral ischemia (Example 9); assay type: in vivo; details: 40 mg/kg i.p. twice a day for 6 days
Method: Wister albino male rats (weight: 250 to 280 g) were used, and training of a task of a maze which was radiated in 8 directions was conducted once a day to make the rats acquire spacial recognition. The rats which had acquired spacial recognition were subjected to cauterization of vertebral arteries and operation of peeling common carotid arteries according to the method of Pulsinelli, Brierly, et al. (Stroke, vol. 10, p. 267, 1979). […] The ischemia treatment was carried out by repeating ischemia twice, i.e., ligating common carotid arteries for 10 minutes by using clips without anesthesia and further ligating them for 10 minutes after 1 hour from restarting of blood flow. Retention trial was carried out one week after the ischemia treatment, and the results were represented by the number of correct choices among first 8 choices, whether all of 8 baits were taken or not, or the number of errors within an observation period a maximum of which was 10 minutes. Further, a pharmaceutical effect was evaluated by 3 ranks, i.e., remarkably effective (showing that the number of correct choices is 7 or more and the number of errors is 1 or less), effective (showing that the number of correct choices is 7 or more and the number of errors is 2 or 3) and ineffective (showing that the number of errors is 4 or more), and represented as an improvement rate thereof.
In the above experiment, examined was influence of continuous administration of 40 mg/kg of PDMP (i.p.) twice a day for 6 days started after 24 hours from the ischemia treatment, which was exerted on the spacial recognition disorder one week after the repeated cerebral ischemia, in the task of the maze which was radiated in 8 directions using the rats.

[9] = started 24 hours after ischemia, retention trial one week after ischemia, FIG. 7

CCCCCCCCCC(=O)N[C@H](CN1CCOCC1)[C@H](O)c1ccccc1 (relative stereo) [DL-threo-PDMP, 1-phenyl-2-decanoylamino-3-morpholino-1-propanol]
decrease in weight / decrease in neutrophile, acidocyte due to suppression of bone marrow (ICR mice; in Myrj 52): neither decrease in weight nor decrease in neutrophile, acidocyte, etc. due to suppression of bone marrow was observed | abnormality on observation for 3 months (ICR mice; observation for 3 months): no abnormality was observed

CCCCCCCCCC(=O)N[C@H](CN1CCOCC1)[C@H](O)c1ccccc1 [D-threo-PDMP, 1-phenyl-2-decanoylamino-3-morpholino-1-propanol]
Accelerating activity when enzyme activity of control is defined as 100%: Serine palmitoyltransferase [1]: no change in the activities was observed | number of synapse formation (frequency of intracellular Ca2+ fluctuation) [2]: suppressedly acted on synapse formation | intracellular content of all GSL (GSL): extremely decreases an intracellular content of all GSL | Accelerating activity when enzyme activity of control is defined as 100%: LacCer synthase [3]: no change in the activities was observed | effect on neurite extension (explants): moderate suppression of neurite extension | inhibition of glucosylceramide biosynthesizing enzyme [4]: specifically inhibits a glucosylceramide biosynthesizing enzyme | ganglioside level as compared with that of the control ([5]; 20 μM, 3 days): decrease in the ganglioside level | activity at 20 µM ([5]; Rattus norvegicus, 72 h, culture for 3 days, control defined as 100%): 63.4% | Accelerating activity when enzyme activity of control is defined as 100%: GlcCer-synthase [6]: no change in the activities was observed | Accelerating activity when enzyme activity of control is defined as 100%: Acyl-CoA: sphigosine N-acyltransferase [7]: no change in the activities was observed | Accelerating activity when enzyme activity of control is defined as 100%: GM3 synthase (GM3 synthase): no change in the activities was observed | extension of neurites (neurites): extension of neurites is suppressed | Accelerating activity when enzyme activity of control is defined as 100%: GD3 synthase (GD3 synthase): no change in the activities was observed

CCCCCCCCCC(=O)NC(CN1CCOCC1)C(O)c1ccccc1 (stereo not drawn) [PDMP, 1-phenyl-2-decanoylamino-3-morpholino-1-propanol]
number of the correct choices versus vehicle group [8, 9]: increase of the number of the correct choices | number of the errors versus vehicle group [8, 9]: decrease of the number of the errors | improvement rate: rats in the remarkably effective rank ([8]; 4/8 rats, FIG. 8): 50%
